Reference: patent US20100075993A1, “SMALL MOLECULE INHIBITORS AGAINST WEST NILE VIRUS REPLICATION” (DREXEL UNIVERSITY, priority 2005, published 2010)

What was measured:
luciferase enzyme = biological target: T1, luciferase enzyme (Photinus pyralis, UniProt P08659); assay: in vitro luciferase enzyme assay with cell lysates; assay type: biochemical; conditions: lysate of WNV replicon cell, 30 minutes incubation, up to 10 μM
T1 construct: expressed in transfected cells; host or cells: BHK 26.5 (BHK cells harbouring the WNV subgenomic replicon with the Luc gene); used as cell lysate
Protocol: In two separate experiments, compounds were either tested with 3, 5, 10 μM or only 10 μM concentrations. The luciferase enzyme cell lysates were incubated with the indicated compounds for 30 minutes before luciferase substrate was added and the luminescence was measured. 1% DMSO was used as controls.
Although the initial HTS and the repeat assays have identified a number of compounds capable of reducing the luciferase activity produced in the WNV replicon BHK 26.5 cell line. It is conceivable that some of these inhibitors could have inhibited the luciferase enzyme itself rather than the WNV viral replication. To rule out this possibility, the identified compounds were tested in an in vitro luciferase enzyme assay by incubating the compounds with cell lysates prepared from the WNV replicon cell. […] The inhibition was not observed when the compounds were added immediately before luminescence reading, but after a 30-minute incubation of […] and the cell lysate, indicating a direct inhibition of the luciferase enzyme by the compounds.

WNV NS3 protein = assay: Western blot of WNV protein in compound treated replicon cells; assay type: cell-based, West Nile virus; conditions: 48-hour treatment, up to 10 uM; MPA 2.5 ug/ml
Protocol: Mycophenolic acid (MPA) was used as positive control in the experiment. 4×10^4 cells were seeded in 24 well plates 24 hours before the various concentrations of compounds were added. After 48 hours of drug treatment, SDS-Sample buffer were added to the wells to lyse the cells. The protein samples were separated on SDS-PAGE and transferred to PVDF membrane. Viral protein was detected by probing with a monoclonal antibody against WNV. The same membrane was stripped and probed for beta-actin with the signals shown at the bottom of the blot.
Although it is reassuring that multiple tests have yielded similar positive results, the ability of the compounds to inhibit WNV replication was further assessed in secondary assays. In the western blot analysis shown in FIG. 5, total cell proteins were prepared from WNV replicon cells treated with the hit compounds and the viral protein NS3 was detected with a monoclonal […] against West Nile virus (15). The same blots were stripped and probed for beta-actin to show equal loading. […] When compared with the IC50 determined for these compounds in the luciferase assay, there was a good correlation between the luciferase reduction and the viral protein reduction.
Total cell lysates from replicon cells were harvested from replicon cells in 1×SDS sample buffer. The lysates were heated at 70° C. for 10 min in the presence of DTT before electrophoresis on a 10% Tris-glycine SDS polyacrylamide gel (Invitrogen) in 1× Tris-glycine buffer. The protein was transferred to PVDF (Invitrogen) membrane. Following the transfer, the membrane was rinsed once with TBS containing 0.5% Tween-20 (TBS-Tween) and blocked in TBS-Tween containing 5% non-fat milk for 1 h. After washing with PBS-Tween, the membrane was incubated with the primary WNV antibody (15) at 1:3000 dilutions for 1 h at 25° C. Prior to incubation with HRP conjugated-mouset IgG secondary antibody (Amersham, Life Science, Piscataway, N.J.) diluted 1:5000, the blot was washed in PBS-Tween. Following the secondary antibody incubation, the blot was washed again and treated with Super Signal Chemiluminescent Reagent (Pierce) according to the manufacturer's protocol and exposed to X-ray film. For controls, the blots were stripped and re-probed with an antibody to beta-actin (Chemicon), which was detected with a goat anti-mouse horseradish peroxidase conjugate.

WNV RNA = assay: Northern blot of WNV RNA in compound treated replicon cells; assay type: cell-based, West Nile virus; conditions: 48-hour treatment, compounds 10 μM, MPA 2.5%
Protocol: FIG. 6 is a picture of a Northern blot gel of compound treated WNV replicon cells. 4×10^4 cells were seeded in 24 well plates. After 24 hours, the cells were treated with DMSO (lanes 2, 3) or the non-specific inhibitors, MPA (lane 1) or the compounds […] (lane 4), 18-B3 (lane 5) or 52-F2 (lane 6). After 48 hours, total RNA were isolated, separated on denaturing agrose gels and transferred to nylon membrane. Total RNA from a non-replicon cell (Huh-7 cell) was loaded in lane 7 as negative control. The membrane was probed with [^32P]-dCTP-labeled WNV NS5 and human beta-actin. The signal was quantified using a BioRad phosphoimager and WNV RNA level was calculated using beta-actin as a reference.
To confirm that the compounds can indeed inhibit WNV RNA replication, the WNV RNA level in the replicon cells treated with compounds by Northern blot analysis. Several hit compounds, 18-B3, 275-F9, 275-D9, 52-F2 and MPA were selected to treat the BHK 26.5 cells at 10 μM. […] The “hit” compounds 18-B3 and 275-F9 reduced WNV RNA by 1.5 and 2 fold, respectively (FIG. 6, lanes 4, 5). 18-B3 is one of the nine compounds that have similar structures while 275-F9 is one from another class of four compounds (Table 3).
Total cellular RNA was extracted by using the RNEASY kit (Qiagen NV, Netherlands). Northern blot analysis was done according to the protocol of Gu et al. 2002 (8). Briefly, 5 μg total RNA was electrophoresed through a 1.0% agarose gel containing 2.2M formaldehyde, transferred to a nylon membrane and immobilized by UV cross-linking (Stratagene, La Jolla, Calif.). After pre-hybridization in 5 ml of QuickHyb (Amersham, Piscataway, N.J. GE Healthcare, Giles, UK), [2P] dCTP-labeled probe made by random primer labeling of a 2.7 kb NS5 DNA fragment and a human beta-actin DNA at 65° C. The membrane was washed twice in 2×SSC/0.1% SDS for 10 min at room temperature and twice in 0.1×SSC/0.1% SDS for 15 min at 68° C. Membranes were exposed to Molecular Imager FX phosphoimager (BioRad, Hercules, Calif.) and the radiographic signals were collected and quantitated.

WNV replicon = WNV replicon luciferase assay in BHK 26.5 cells (HTS, re-test, IC50); assay type: cell-based, West Nile virus
Protocol: Ten micromolar concentrations of a selected compound were incubated with BHK 26.5 cells expressing luciferase whose activity is dependent upon WNV replicon replication (FIG. 1A). Primary “hits” were defined by the ability to reduce the amount of luciferase enzyme activity by more than 50%, compared to controls.
To quantify and rank the activity of the 23 remaining compound “hits”, a serial dilution of each compound was incubated with WNV replicon cells to determine the concentration that inhibits 50% of the luciferase readout (IC50s). […] A number of compounds had significant effect only at the highest, 10 μM concentration. However, several compounds had IC50s between 2 and 5 (Table 3), which is very reasonable for primary HTS hits from a compound library. Only a few compounds could cause 90% inhibition in the replicon cells at the concentrations tested.
(§1) Replicon-harboring cells were plated 96-well plates at 10,000 cells per well in MEM plus 3% FBS. 24 hours after plating, compounds were added to the wells by a Robotic liquid handler (Biomek NX) to a final concentration of 10 μM and 1% DMSO. For each 96 well plate, A1 to A8 were left open, H1 to H4 contained 1% DMSO, H5-H8 contained Mycophenolic acid (Sigma-Aldrich, St. Louis, Mo.), which was included as positive controls. After 24 hours of treatment, the media were removed and the luciferase activity expressed in the replicon cells was quantified. When cyto-toxicity was measured, duplicate 96 well plates were plated with BHK 26.5 replicon cells. One plate was used for luciferase assay and one plate was used for measuring toxicity using MTT assay.
Luciferase assay was performed by using the STEADY GLO reagent (Promega Corp. Madison, Wis.) according to the manufacturer's recommendation with slight modifications. Briefly, the culture media from the 96 wells were removed by dumping on paper towels.
100 μl of a 1:1 mixture of luciferase regent and culture media were added to the plate. After 5-minute incubation, the luminescence was read on a TOPCOUNT (PerkinElmer, Wellesley, Mass.).

BHK 26.5 replicon cells = assay: MTT toxicity assay on BHK 26.5 replicon cells; assay type: cell-based
From the text: The HTS strategy follows the flowchart outlined in FIG. 2. 35,000 compounds were screened from a chemical library described below, using a cutoff of 50% reduction in luminescence readout as the criteria for further study. Upon completion of the screen, approximately 1100 compounds were selected, making the hit rate of 3%. This is considerably higher than expected, implying many false positive and/or cytotoxic compounds. Nevertheless, the compounds were picked out from the “daughter” plates and re-checked at a single 10 μM concentration. In addition, a duplicate 96 well plates were also plated and the toxicity of the compounds was determined in an MTT assay. Upon completion of these assays, most compounds were disqualified as either false positives or being toxicity to cells. As a result, only a small number of compounds were further analyzed directly from the “mother” plate stock. After IC50 determination and secondary assay to rule out luciferase inhibitors, 23 “hits” were identified.
as §1
(§2) Compound toxicity was determined by MTT assay. For the MTT assay, the cell medium was removed and the monolayers were incubated with 100 μl/well of 0.5 mg/ml MTT for 6 h at 37° C. The MTT solution was then aspirated and 100 μl/well of the 10% SDS (in 0.01N HCl) was added, followed by spectrophotometric quantitation (570 nm) of the insoluble MIT reaction product.

WNV = WNV yield reduction assay (live virus) on BHK cells; assay type: cell-based, West Nile virus
Protocol: The antiviral assay for the 309-F6 compounds was conducted on BHK cells. The virus produced in the presence of 1% DMSO or various concentrations of compounds was tittered on Vero cells. The amount of virus relative to the 1% DMSO control was plotted on the y-axis; the concentration of the compound 309F6 is shown in μM on the x-axis. Data from two independently treated wells (Test 1 and Test 2) are shown.
To measure activity against live WNV, BHK cells were plated in 96-well plates at a concentration of 12,000 cells/well. One day later the cells were infected with WNV for 1 h at an MOI of 0.05. The cells were then washed once and re-fed with fresh DMEM containing dilutions of the test compound. Plates were then incubated at 37° C. for 48 h, the supernatant collected and the WNV produced titered. For virus titration, Vero cells were plated in 96-well plates at 8000 cells/well and incubated overnight. The Vero cell monolayer were then infected for 1 h with various dilutions of the WNV supernatant, overlaid with media containing 0.6% tragacanth (ICN, CA) and incubated at 37° C. for 48 h. The culture media was then aspirated; the plate was rinsed, air-dried, and fixed with 50 μl/well acetone/methanol (50:50). Viral foci were detected for enumeration by immunostaining as described previously (15).

[1] = toxicity (MTT, CC50) in BHK cells parallel to WNV infection assay; assay type: cell-based; conditions: hamster; highest concentration used 40 μM
Protocol: (§3) Several of these original compounds selected from the WNV replicon based screen were evaluated in an antiviral assay against WNV live virus. […] Modifications of this compound would be further investigated
(§4) The toxicity of 101-G7 was also measured by MTT assay and CC50 was calculated. 40 μM is highest concentration used.
as §2

BHK cells = assay: as above; assay type: cell-based; conditions: MTT assay, 40 μM highest concentration used; read-out: Tox CC50
Protocol: as §3, §4, §2

T1 sequence (P08659 whole entry): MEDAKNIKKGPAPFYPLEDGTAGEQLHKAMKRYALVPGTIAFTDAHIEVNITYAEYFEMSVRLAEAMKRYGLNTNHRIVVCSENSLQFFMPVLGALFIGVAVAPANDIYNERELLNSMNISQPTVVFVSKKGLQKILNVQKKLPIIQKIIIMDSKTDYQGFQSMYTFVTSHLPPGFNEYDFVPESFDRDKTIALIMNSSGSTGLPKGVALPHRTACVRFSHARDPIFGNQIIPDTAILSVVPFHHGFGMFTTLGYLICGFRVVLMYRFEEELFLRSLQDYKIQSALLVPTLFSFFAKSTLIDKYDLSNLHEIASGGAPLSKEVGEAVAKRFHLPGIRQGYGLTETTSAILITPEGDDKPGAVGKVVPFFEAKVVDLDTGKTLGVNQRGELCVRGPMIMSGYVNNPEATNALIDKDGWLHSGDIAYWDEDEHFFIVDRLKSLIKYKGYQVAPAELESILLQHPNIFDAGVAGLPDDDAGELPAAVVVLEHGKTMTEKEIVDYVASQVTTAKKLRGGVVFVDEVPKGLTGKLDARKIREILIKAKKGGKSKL

SMILES: COc1c(C)c2c(c(O)c1C/C=C(\C)CCC(=O)O)C(=O)OC2 [MPA, Mycophenolic acid, reference compound]
- luciferase enzyme activity in cell lysate (luciferase enzyme): did not reduce the luciferase activity
- WNV NS3 protein level (western blot) (WNV NS3 protein): reduced WNV NS3 protein level
- WNV RNA reduction (WNV RNA): more than five fold

SMILES: Cc1ccc(-c2csc(Nc3ccc(S(=O)(=O)Nc4cc(C)on4)cc3)n2)cc1 [Compound 101-G7, N-(5-Methyl-isoxazol-3-yl)-4-(4-p-tolyl-thiazol-2-ylamino)-benzenesulfonamide]
- IC50 (WNV replicon; West Nile virus, 24 h): 5 µM
- Fold decrease (HTS) (WNV replicon; luciferase activity, 10 μM compound, 24 hours, BHK 26.5 cells): 6 Fold
- Fold decrease (Re-test) (WNV replicon; luciferase activity, re-checked at a single 10 μM concentration): 2 Fold
- reducing the luciferase activity of the WNV replicon cell (WNV replicon; re-synthesized compound, 24 and 48 hour incubation): good activity
- Toxicity (uM)* (BHK 26.5 replicon cells; MTT assay): >10 µM
- toxicity in replicon assays (BHK 26.5 replicon cells; re-synthesized compound, MTT): about 80 μM
- IC50 (WNV; West Nile virus, BHK, read-out: IC50 in WNV infection assay, re-synthesized, three independent experiments in duplicate): 3 to 15 µM
- activity in the WNV infection assay (WNV; live WNV): retained activity
- CC50 [1]: > 40 µM
- CC50 (BHK cells): > 40 µM
